Reference: US5919755A, “Medical use of heme products” (Leiras OY, priority 1995, dated 1999)
Where “and” joins values, the source holds several entries; their conditions need not be identical. Equal entries are not always repeated. Where two headings read alike, the source gives them in different places.

What was measured:
[1] = cited from earlier work
[2] = cited from earlier work; remark: listed apart in the source
[3] = tested on: polychromatic erythrocytes; experiment: Mouse micronucleus assay (micronucleated polychromatic erythrocytes in bone marrow smears); format: in vivo, mouse (CD-1 outbred, Swiss origin); settings: for Incidence: number of micronucleated polychromatic erythrocytes per 1000 polychromatic erythrocytes examined: 36 mg/kg i.v.
Source text: 1. Mouse micronucleus assay
Micronuclei are seen in a variety of cells, but erythrocytes are chosen for examination since micronuclei are easily detected in this cell type.
A few hours after the last mitosis is completed, erythroblasts expel their nucleus. Young erythrocytes stain blue with Giemsa due to the presence of ribonucleic acid, which gradually disappears so that more mature erythrocytes stain pink with Giemsa. The young blue-staining cells are known as polychromatic erythrocytes and micronuclei are readily detected in this cell type.
The test animals were specific pathogen free CD-1 outbred mice of Swiss origin weighing between 22 and 24 grams and approximately 40 days old during the study. The mice were acclimatized for four days and after that dosed by intravenous injection with a volume of 10 ml/kg body weight either with saline solution (vehicle control) or with heme arginate solution at the dose 36 mg hemin/kg body weight. Five male and five female mice were sacrificed by cervical dislocation 24, 48, and 72 hours after dosing. A direct bone marrow smear was made from femur onto a slide containing a drop of calf serum. The smears were fixed in methanol, air dried, and stained for 10 minutes in 10% Giemsa solution. The stained smears were examined (under code) by light microscopy to determine the incidence of micronucleated cells per 1000 polychromatic erythrocytes per animal.

[4] = tested on: blasts in bone marrow; experiment: Proportion of blasts in the bone marrow of myelodysplastic patients; format: in vivo, human; settings: for Blasts in bone marrow, after / Myeloblasts in bone marrow, after / Sum of blasts and myeloblasts in bone marrow, after: one week after last of 15 infusions, 3 mg hemin/kg i.v.; for Myelodysplastic syndrome subtype, after: after treatment
Procedure: 2. Proportion of blasts in the bone marrow of myelodysplastic patients
In a clinical study patients with myelodysplastic syndromes were treated with intravenous infusions of heme arginate at the dose level 3 mg hemin/kg. The infusions were given first on four consecutive days and after that once a week for eleven weeks. Thus totally 15 infusions were given to each patient.
Bone marrow sample was collected from each patient before start of the heme arginate infusions and one week after the last infusion. Proportion of blasts and myeloblasts were determined in the bone marrow samples by using standard hematological laboratory procedures. The definition of "a blast" as used in the classification of myelodysplastic syndromes includes both blasts and myeloblasts (9).

[5] = tested on: human erythroid precursors; experiment: Induction of production of fetal hemoglobin in vitro (two-phase liquid culture, HPLC); format: cell-based
Source text: Cells grown in phase II in the presence of the indicated concentrations of heme arginate, were harvested on day 13 and their hemoglobin quantitated.
Cells grown in phase II in the presence of the indicated concentrations of heme arginate, were harvested on day 13 and their hemoglobin chromatographed and quantitated.
Cells grown in phase II in the absence or presence of heme arginate from day 0 and with the indicated concentrations of hydroxyurea from day 5, were harvested on day 13 and their hemoglobin chromatographed and quantitated.
3. Induction of production of fetal hemoglobin in vitro
Peripheral blood mononuclear cells obtained from normal volunteers and either sickle cell anemia or β-thalassemia patients were isolated by centrifugation on a gradient of Ficoll-Hypaque and seeded at a density of 5×10^6 cells/ml in alpha-minimal essential medium supplemented with 10% fetal calf serum (FCS), 1 μg/ml cyclosporin A, and 10% conditioned medium collected from cultures of the 5637 bladder-carcinoma cell line. The cultures were incubated at +37° C. in an atmosphere of 5% CO2 in air with extra humidity.
Following 7-day incubation in this phase I culture, the non-adherent cells were harvested, washed, and recultured in fresh medium composed of alpha-medium, 30% FCS, 1% deionized bovine serum albumin, 1×10^-5 M β-mercaptoethanol, 1.5 mM glutamine, 1×10^-6 M dexamethasone, and 1 U/ml human recombinant erythropoietin. Hemoglobin containing cells were determined by using the benzidine-HCl procedure.
The effect of heme arginate on fetal hemoglobin (Hb-F) production was determined by growing human erythroid precursors in the second phase of the above described liquide cell culture in the presence of 1 U/ml erythropoietin and different concentrations of heme arginate. The combination effect of heme arginate and hydroxyurea was investigated with 100 μM heme arginate added on day 0 and various concentrations of hydroxyurea added on day 5. Cells were harvested on day 13 and lysed, and their total hemoglobin and Hb-F content was analyzed by cation-exchange HPLC.

[6] = tested on: myelodysplastic syndrome; settings: cited from earlier work
[7] = tested on: myelodysplastic syndrome; settings: cited from earlier work; remark: listed apart in the source
[8] = humans, intravenous dose of 3 mg/kg; cited from earlier work
[9] = rat, intravenous dose of 3 mg/kg; cited from earlier work
[10] = tested on: plasma proteins; settings: after infusion into the blood stream; cited from earlier work
[11] = tested on: myelodysplastic syndromes; settings: part of MDS patients; cited from earlier work
[12] = Table 3, one line per patient, baseline before treatment
[13] = Table 4, patients not considered good responders, one line per patient, baseline before treatment
[14] = Table 4, patients not considered good responders, one line per patient
[15] = of 26 patients, 2-3 mg hemin/kg

C=CC1=C(C)c2cc3[n-]c(cc4[n-]c(cc5nc(cc1n2)C(C)=C5C=C)c(C)c4CCC(=O)O)c(CCC(=O)O)c3C.O.[Fe+2] [hematin]
adverse effects ([1]; in vivo, iv): often complicated by adverse effects, including phlebitis at the infusion site and disturbances in hemostasis

Hemin
solubility [2]: poorly soluble

heme arginate
Incidence: number of micronucleated polychromatic erythrocytes per 1000 polychromatic erythrocytes examined ([3]; killed 24 hours after dosing, vehicle control 1.2): 1.1 per 1000 polychromatic erythrocytes | Incidence: number of micronucleated polychromatic erythrocytes per 1000 polychromatic erythrocytes examined ([3]; killed 48 hours after dosing, vehicle control 1.0): 0.5 per 1000 polychromatic erythrocytes | Incidence: number of micronucleated polychromatic erythrocytes per 1000 polychromatic erythrocytes examined ([3]; killed 72 hours after dosing, vehicle control 1.0): 0.4 per 1000 polychromatic erythrocytes | effect on incidence of mutagenesis (mouse micronucleus test) ([3]; in vivo, 36 mg/kg): able to decrease incidence of mutagenesis | Blasts in bone marrow, before ([4]; Table 3, RAEB or RAEB-t patients, one line per patient, baseline before treatment): 4% and 3% and 6% and 15% and 10% | Blasts in bone marrow, after ([4]; Table 3, RAEB or RAEB-t patients, one line per patient): 0% and 1% and 4% and 6% | Myelodysplastic syndrome subtype, after ([4]; Table 3, one line per patient): RARS and RAEB | Myeloblasts in bone marrow, before [4, 12]: 6% and 8% and 4% and 3% and 20% | Myelodysplastic syndrome subtype, before [4, 12]: RAEB and RAEB-t | Myeloblasts in bone marrow, after ([4]; Table 3, one line per patient): 4% and 3% | Sum of blasts and myeloblasts in bone marrow, after ([4]; Table 3 and text, one line per patient): 4% and 8% and 10% | patients with a clear decrease of blasts ([4]; Table 3 patients, of 21): 5/21 | Blasts in bone marrow, before ([4]; Table 4, RARS or RAEB patients not considered good responders, one line per patient, baseline before treatment): 5 and 8 and 2 and 3 and 1 and 4 and 0 | Myelodysplastic syndrome subtype, after ([4]; Table 4, one line per patient): RAEB and RARS | Myelodysplastic syndrome subtype, before ([4]; Table 4, one line per patient, baseline before treatment): RAEB and RARS | Myeloblasts in bone marrow, before [4, 13]: 4 and 2 and 8 and 9 and 3 and 10 and 5 and 1 | Sum of blasts and myeloblasts in bone marrow, before [4, 13]: 9 and 12 and 4 and 5 and 7 and 14 and 13 and 3 and 1 and 10 | Blasts in bone marrow, after [4, 14]: 5 and 8 and 0 and 2 and 3 and 1 and 4 | Myeloblasts in bone marrow, after [4, 14]: 3 and 2 and 1 and 7 and 6 and 10 and 9 and 5 and 0 | Sum of blasts and myeloblasts in bone marrow, after [4, 14]: 8 and 11 and 2 and 3 and 7 and 13 and 4 and 12 and 6 and 1 and 9 | patients with a smaller decrease of blasts ([4]; Table 4 patients, of 21): 12/21 | patients with no effect on blasts ([4]; Table 4 patients, of 21): 1/21 | patients with slight increase of blasts ([4]; Table 4 patients, of 21): 3/21 | patients with some decrease of blasts, totally ([4]; all patients, of 21): 17/21 | effect on proportion of blasts in bone marrow ([4]; some MDS patients): able to decrease proportion of blasts | amount of total hemoglobin produced ([5]; FIG. 1, phase II culture, harvested day 13, erythroid precursors from patients with hemoglobinopathies): increases the amount of total hemoglobin | proportion of fetal hemoglobin (Hb-F) ([5]; FIG. 2, phase II culture, harvested day 13, heme arginate alone): increases the proportion of fetal hemoglobin | effect of heme arginate on proportion of fetal hemoglobin (Hb-F) in presence of hydroxyurea ([5]; FIG. 3, heme arginate 100 μM from day 0, hydroxyurea 25-200 μM from day 5, harvested day 13): potentiated by the presence of hydroxyurea | patients with MDS progression ([6]; of 26 patients (13)): 4/26 | patients showing improvement in cytopenias during the therapy [6, 15]: Six | patients with long-lasting good response with normal or close to normal blood cell counts [6, 15]: three | duration of long-lasting good response ([6]; single patients, 2-3 mg hemin/kg): > 11 months and > 12 months and 25 months | patients with MDS progression ([7]; of 14 patients (15)): 4/14 | patients with decrease of blasts ([7]; of 14 patients (15), considered to be an occasional event): 1/14 | patients with long-lasting improvement in hemoglobin values and/or platelet counts ([7]; of 14 patients, 3 mg hemin/kg): Three | duration of long-lasting improvement in hemoglobin values and/or platelet counts ([7]; single patients, 3 mg hemin/kg): 5 months and 26 months and > 41 months | AUC [8]: 998 µg/mL/h | AUC [9]: 64 µg/mL/h | plasma protein binding [10]: quickly bound to the plasma proteins in monomeric form | effect on blood cell counts [11]: clinically effective in part of MDS patients by increasing the blood cell counts | solubility [2]: increases the aqueous solubility | adverse effects ([1]; intravenous use, incl. phlebitis at infusion site and disturbances in hemostasis): lack of serious adverse effects | adverse effects ([1]; intravenous use, incl. phlebitis at infusion site and disturbances in hemostasis, listed as Heme arginate): seldom produces these effects and therefore is better tolerated
